Assays:
Type in all cases: cell-based
[1] = tested on: Aβ42; assay: Method 1: Aβ42 sandwich ELISA in supernatant of SKNBE2 cells carrying APP 695-wild type (Tables 7a, 7b)
In short: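 IC50 values were derived with a 4-parameter equation, fitting either percent inhibition or percent of compound-free Aβ42 as the control. The Aβ42 came from supernatants of APP695 wild-type SKNBE2 cells treated for 18 hours. It was measured by ELISA with anti-Aβ42 capture, biotinylated 3D6 and TMB absorbance at 450 nm.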

[2] = tested on: Aβtotal; assay: Method 1: Aβtotal sandwich ELISA in supernatant of SKNBE2 cells carrying APP 695-wild type (Tables 7a, 7b)
In short: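 SKNBE2 cells expressing wild-type APP695 were exposed to compound for 18 Hours in Ultraculture with 1% glutamine. Aβtotal in the supernatant was read by 6E10-capture/biotinylated 4G8 sandwich ELISA with a fluorogenic peroxidase read-out, and WST-1 checked toxicity. IC50 came from a 4-parameter fit of percent inhibition or percent of control versus concentration.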

[3] = tested on: Aβ42; assay: Method 2: Aβ42 Alphalisa in supernatant of SKNBE2 cells carrying APP 695-wild type (Table 7c); settings: Method 2, Alphalisa, overnight incubation
Method: (§1) Screening was carried out using SKNBE2 cells carrying the APP 695-wild type, grown in Dulbecco's Modified Eagle's Medium/Nutrient mixture F-12 (DMEM/NUT-mix F-12) (HAM) provided by Invitrogen (cat no. 10371-029) containing 5% Serum/Fe supplemented with 1% non-essential amino acids, 1-glutamine 2 mM, Hepes 15 mM, penicillin 50 U/ml (units/ml) en streptomycin 50 μg/ml. Cells were grown to near confluency.
(§2) The screening was performed using a modification of the assay as described in Citron et al (1997) Nature Medicine 3: 67. Briefly, cells were plated in a 384-well plate at 10^4 cells/well in Ultraculture (Lonza, BE12-725F) supplemented with 1% glutamine (Invitrogen, 25030-024), 1% non-essential amino acid (NEAA), penicillin 50 U/ml en streptomycin 50 μg/ml in the presence of test compound at different test concentrations. The cell/compound mixture was incubated overnight at 37° C., 5% CO2. The next day the media were assayed by two sandwich immuno-assays, for Aβ42 and Aβtotal.
(§3) Aβtotal and Aβ42 concentrations were quantified in the cell supernatant using the Aphalisa technology (Perkin Elmer). Alphalisa is a sandwich assay using biotinylated antibody attached to streptavidin coated donorbeads and antibody conjugated to acceptor beads. In the presence of antigen, the beads come into close proximity. The excitation of the donor beads provokes the release of singlet oxygen molecules that trigger a cascade of energy transfer in the acceptor beads, resulting in light emission. To quantify the amount of Aβ42 in the cell supernatant, monoclonal antibody specific to the C-terminus of Aβ42 (JRF/cAβ42/26) was coupled to the receptor beads and biotinylated antibody specific to the N-terminus of Aβ (JRF/AβN/25) was used to react with the donor beads. To quantify the amount of Aβtotal in the cell supernatant, monoclonal antibody specific to the N-terminus of Aβ (JRF/AβN/25) was coupled to the receptor beads and biotinylated antibody specific to the mid region of Aβ (biotinylated 4G8) was used to react with the donor beads.
(§4) To obtain the values reported in Table 7c, the data were calculated as percentage of the maximum amount of amyloid Beta 42 measured in the absence of the test compound. The sigmoidal dose response curves were analyzed using non-linear regression analysis with percentage of the control plotted against the log concentration of the compound. A 4-parameter equation was used to determine the IC50.

[4] = tested on: Aβtotal; assay: Method 2: Aβtotal Alphalisa in supernatant of SKNBE2 cells carrying APP 695-wild type (Table 7c); settings: Method 2, Alphalisa, overnight incubation
Method: as §1, §2, §3, §4

[5] = Table 7b, averaged IC50, non-linear regression of percentage of control vs log concentration, 4-parameter equation
[6] = Table 7a, SKNBE2 cells, compounds 18 h, XLfit 4-parameter fit of percent inhibition, top/bottom fixed to 100/0, hill slope 1

| Compound | IC50 [1, 5] | IC50 [2, 5] | IC50 [3] | IC50 [4] | IC50 [1, 6] | IC50 [2, 6] | IC50 ([3]; Homo sapiens) | IC50 ([4]; Homo sapiens) |
| --- | --- | --- | --- | --- | --- | --- | --- | --- |
| Cc1ncc(-c2ccc(Nc3cccc4c3nc(C3(c5ccc(Cl)cc5)CC3)n4C)cn2)o1 [Compound 88] | 66 nM | > 10000 nM | 58 nM | 8910 nM | – | – | – | – |
| Cc1nc(C)c(-c2ccc(Nc3cc(F)cc4c3nc(-c3ccccc3Cl)n4C)cn2)o1 [Compound 79] | 28 nM | > 3000 nM | 76 nM | > 10000 nM | – | – | – | – |
| COc1cc(Nc2cc(C(C)C)nc3c2nc(-c2ccc(F)cc2)n3C)ccc1-c1cnc(C)o1 [Compound 190] | 5 nM | > 3000 nM | 10 nM | > 10000 nM | – | – | – | – |
| Cc1ncc(-c2ccc(Nc3cccn4c(C)c(-c5ccccc5Cl)nc34)cc2)o1 [Compound 49] | 20 nM | > 3000 nM | 40 nM | > 10000 nM | 21 nM | > 3000 nM | – | – |
| Cc1ncc(-c2ccc(Nc3cccn4cc(-c5cc(C(F)(F)F)ccc5C)nc34)cc2)o1 [Compound 50] | 20 nM | > 3000 nM | 72 nM | > 10000 nM | 38 nM | > 3000 nM | – | – |
| Cc1ncc(-c2ccc(Nc3nccc4c3nc(-c3ccccc3Cl)n4C)cn2)o1 [Compound 85] | 66 nM | > 3000 nM | 363 nM | > 10000 nM | – | – | – | – |
| Cc1ncoc1-c1ccc(Nc2cccc3c2nc(-c2ccc(F)cc2)n3C)cn1 [Compound 35] | 89 nM | – | 214 nM | > 10000 nM | 90 nM | > 3000 nM | – | – |
| Cc1cn2cccc(Nc3ccc(-c4cnc(C)o4)nc3)c2n1 [Compound 172] | 2090 nM | > 3000 nM | 661 nM | > 10000 nM | – | – | – | – |
| Cc1ncc(-c2ccc(Nc3cccc4c3nc(C(C)c3ccc(Cl)cc3)n4C)cn2)o1 (racemic) [Compound 87] | 251 nM | > 10000 nM | 288 nM | 9120 nM | – | – | – | – |
| COc1cc(Nc2nc(C)cc3c2nc(-c2ccc(F)cc2)n3C)ccc1-c1ocnc1C [Compound 125] | 33 nM | – | 195 nM | > 10000 nM | – | – | – | – |
| Cc1ncc(-c2ccc(Nc3cc(F)cc4c3nc(-c3ccccc3Cl)n4C)cn2)o1 [Compound 107] | 18 nM | > 3000 nM | 25 nM | > 10000 nM | – | – | – | – |
| COc1cc(Nc2cc(C#N)cn3cc(C)nc23)ccc1-c1ocnc1C [Compound 145] | 166 nM | – | 1050 nM | 6310 nM | – | – | – | – |
| Cc1ncoc1-c1ccc(Nc2cccc3c2nc(-c2ccc(F)cc2)n3C(C)C)cc1F [Compound 65] | 83 nM | > 3000 nM | 117 nM | > 10000 nM | – | – | – | – |
| Cc1ncc(-c2ccc(Nc3nccc4c3nc(-c3ccc(F)cc3)n4C(C)C)cc2)o1 [Compound 26] | 871 nM | > 30000 nM | 191 nM | > 10000 nM | – | – | – | – |
| Cc1cc2c(nc(-c3cccc(Cl)c3)n2C)c(Nc2ccc(-c3ocnc3C)nc2)n1 [Compound 111] | 339 nM | > 10000 nM | 204 nM | > 10000 nM | – | – | – | – |
| COc1nc(Nc2cccc3c2nc(-c2ccc(F)cc2)n3C)ccc1-c1ccnc(C)c1 [Compound 129] | – | – | 17 nM | 5250 nM | – | – | – | – |
| COc1cc(Nc2cc(F)cn3cc(C4CCOCC4)nc23)ccc1-c1ocnc1C [Compound 163] | 245 nM | > 10000 nM | 158 nM | > 10000 nM | – | – | – | – |
| Cc1cc(-c2ccc(Nc3cccc4c3nc(-c3ccc(F)cc3)n4C)cc2)ccn1 [Compound 138] | – | – | 49 nM | 7080 nM | – | – | – | – |

| Compound | IC50 [1, 5] | IC50 [2, 5] | IC50 [3] | IC50 [4] | IC50 [1, 6] | IC50 [2, 6] | IC50 ([3]; Homo sapiens) | IC50 ([4]; Homo sapiens) |
| --- | --- | --- | --- | --- | --- | --- | --- | --- |
| Cc1ncc(-c2ccc(Nc3cc(C#N)cc4c3nc(-c3ccc(F)cc3)n4C)cn2)o1 [Compound 86] | 19 nM | > 3000 nM | 52 nM | > 10000 nM | – | – | – | – |
| Cc1ncoc1-c1ccc(Nc2cccn3cc(CC4CCOCC4)nc23)cn1 [Compound 164] | 1410 nM | 9330 nM | 1320 nM | 6760 nM | – | – | – | – |
| Cc1cc(-c2ccc(Nc3nc(C)cc4c3nc(-c3ccc(F)cc3)n4C)cc2F)ccn1 [Compound 136] | – | – | 112 nM | > 10000 nM | – | – | – | – |
| COc1cc(Nc2cccn3c(C)c(-c4ccccc4Cl)nc23)ccc1-c1ccnc(C)c1 [Compound 201] | – | – | 45 nM | > 10000 nM | – | – | – | – |
| Cc1ncc(-c2ccc(Nc3cccn4c(C)c(-c5ccccc5Cl)nc34)cn2)o1 [Compound 173] | 9 nM | > 3000 nM | 7 nM | > 10000 nM | – | – | – | – |
| COc1cc(Nc2nccn3cc(C)nc23)ccc1-c1ocnc1C [Compound 158] | – | – | 1860 nM | > 10000 nM | – | – | – | – |
| Cc1ccc(F)cc1-c1cn2nc(Cl)cc(Nc3ccc(-c4ocnc4C)nc3)c2n1 [Compound 198] | – | – | 1180 nM | 6760 nM | – | – | – | – |
| COc1cc(Nc2cc(C(C)=O)cn3cc(CC(C)C)nc23)ccc1-c1ocnc1C [Compound 156] | – | – | – | – | – | – | 42 nM | 8910 nM |
| COc1cc(Nc2cc(Cl)cn3cc(C4CCOCC4)nc23)ccc1-c1ocnc1C [Compound 159] | – | – | 269 nM | > 10000 nM | – | – | – | – |
| COc1nc(Nc2cccc3c2nc(-c2ccc(F)cc2)n3C(C)C)ccc1-c1ccnc(C)c1 [Compound 130] | – | – | 30 nM | > 10000 nM | – | – | – | – |
| Cc1ncc(-c2ccc(Nc3nccc4c3nc(CC3CC3)n4C)cc2F)o1 [Compound 66] | > 3000 nM | – | > 10000 nM | > 10000 nM | – | – | – | – |
| COc1cc(Nc2cccc3c2nc(-c2ccc(F)cc2)n3C)ccc1-c1cn(C)nn1 [Compound 74] | – | – | 7410 nM | 4470 nM | – | – | – | – |
| Cc1ncc(-c2cnc(Nc3cccc4c3nc(-c3ccc(F)cc3)n4C)nc2)o1 [Compound 188] | – | – | – | – | – | – | > 10000 nM | > 10000 nM |
| COc1cc(Nc2cccc3c2nc(-c2ccc(F)cc2)n3C(C)C)ccc1-c1ccnc(C)c1 [Compound 128] | – | – | – | – | – | – | 39 nM | 9120 nM |
| COc1nc(Nc2cccn3c(C)c(-c4ccccc4Cl)nc23)ccc1-c1ccnc(C)c1 [Compound 194] | – | – | 17 nM | ~6760 nM | – | – | – | – |
| COc1cc(Nc2cccc3c2nc(C2CCOCC2)n3C(C)C)ccc1-c1cnc(C)o1 [Compound 93] | 1860 nM | – | 2750 nM | > 10000 nM | – | – | – | – |
| Cc1cc(-c2ccc(Nc3nc(C)cc4c3nc(-c3ccc(F)cc3)n4C)cc2)ccn1 [Compound 132] | – | – | 123 nM | 6310 nM | – | – | – | – |
| COc1nc(Nc2cccc3c2nc(-c2ccc(F)cc2)n3C(C)C)ccc1-c1cnn(C)c1 [Compound 69] | – | – | 22 nM | > 10000 nM | – | – | – | – |

Reference: patent publication US8946426B2, “Substituted bicyclic heterocyclic compounds as gamma secretase modulators” (Janssen Pharmaceuticals, Inc., priority 2009, dated 2015)
